Test results from ChEMBL document CHEMBL4177599, “The antitubercular activity of various nitro(triazole/imidazole)-based compounds” (Bioorg Med Chem, 2017).
≈ marks a conversion by molar mass, not a printed value.

Columns and labels:
[1] = test system: Mycobacterium tuberculosis; test: Antitubercular activity against luxABCDE expressing Mycobacterium tuberculosis H37Rv infected in mouse J774 macrophages assessed as log reduction in bacterial colonies at 30 uM measured after 4 days under aerobic condition by luminescence assay; format: functional
[2] = test system: Mycobacterium tuberculosis; test: Antitubercular activity against Mycobacterium tuberculosis H37Rv ATCC 27294 after 5 days under aerobic condition; format: functional, organism-based; conditions: for IC50 / IC90 / MIC: H37Rv ATCC 27294, 120 h
[3] = test system: Mycobacterium tuberculosis; test: Antitubercular activity against luxABCDE expressing Mycobacterium tuberculosis H37Rv infected in human THP1 cells measured after 3 days by luminescence assay; format: functional, organism-based; conditions: THP-1, 72 h
[4] = test system: Mycobacterium tuberculosis; test: Antitubercular activity against luxABCDE expressing Mycobacterium tuberculosis H37Rv infected in mouse J774 macrophages assessed as log reduction in bacterial colonies at 2.6 uM measured after 4 days under aerobic condition by luminescence assay; format: functional
[5] = Protein binding in human plasma at 5 uM after 4 hrs by LC-MS/MS analysis
in vitro [6] = conditions: human, Caco-2
Description: Efflux ratio of apparent permeability from basolateral to apical over apical to basolateral side in human Caco2 cells monolayer at 10 uM after 1 hr by LC-MS/MS analysis

[7] = Apparent permeability of the compound across basolateral side to apical side in human Caco2 cells monolayer at 10 uM after 1 hr by LC-MS/MS analysis; format: ADME, cell-based; conditions: Caco-2
in vitro [8] = conditions: human, Caco-2; remark: listed apart in the source
Description: Apparent permeability of the compound across basolateral side to apical side in human Caco2 cells monolayer at 10 uM after 2 hrs by LC-MS/MS analysis

in vitro [9] = conditions: human, Caco-2; remark: listed apart in the source
Description: Efflux ratio of apparent permeability from basolateral to apical over apical to basolateral side in human Caco2 cells monolayer at 10 uM after 2 hrs by LC-MS/MS analysis

in vitro [10] = conditions: human, Caco-2; remark: listed apart in the source
Description: Apparent permeability of the compound across apical side to basolateral side in human Caco2 cells monolayer at 10 uM after 2 hrs by LC-MS/MS analysis

[11] = Fraction unbound in human plasma at 5 uM after 4 hrs by LC-MS/MS analysis; format: ADME, cell-free
[12] = test system: Mycobacterium tuberculosis; test: Antitubercular activity against luxABCDE expressing Mycobacterium tuberculosis H37Rv infected in mouse J774 macrophages assessed as log reduction in bacterial colonies at 10.9 uM measured after 4 days under aerobic condition by luminescence assay; format: functional
[13] = test system: Mycobacterium tuberculosis; test: Potency index, ratio of compound MIC to metronidazole MIC for antitubercular activity against Mycobacterium tuberculosis H37Rv ATCC 27294 under low oxygen condition; format: functional
[14] = test system: Mycobacterium tuberculosis; test: Antitubercular activity against Mycobacterium tuberculosis H37Rv ATCC 27294 after 10 days under low oxygen condition followed by incubation under aerobic condition for 28 hrs by LORA; format: functional, organism-based
[15] = Solubility of compound in Middlebrook 7H9 broth media at pH 6.4 at 200 uM after 90 mins by UV-VIS spectrophotometric method; format: physicochemical; conditions: buffer, pH 6.4, 1.5 h
[16] = test system: Mycobacterium tuberculosis; test: Bactericidal activity against Mycobacterium tuberculosis H37Rv ATCC 27294 assessed as concentration required for 2 log kill after 21 days under aerobic condition by colony forming assay; format: functional; conditions: for MBC: H37Rv ATCC 27294, 504 h
Vero = test: Cytotoxicity against African green monkey Vero cells after 2 days by CellTiter-Glo luminescent cell viability assay; format: ADME, cell-based; conditions: Chlorocebus sabaeus, 48 h
[17] = test system: Mycobacterium tuberculosis; test: Antitubercular activity against luxABCDE expressing Mycobacterium tuberculosis H37Rv infected in mouse J774 macrophages assessed as log reduction in bacterial colonies at 20 uM measured after 4 days under aerobic condition by luminescence assay; format: functional
[18] = Intrinsic clearance in human liver S9 microsomes at 1 uM in absence of NADPH by LC-MS/MS analysis; format: ADME, S9 microsome; conditions: read-out: CLH
[19] = Half life in human liver S9 microsomes at 1 uM in presence of NADPH by LC-MS/MS analysis
[20] = Intrinsic clearance in human liver S9 microsomes at 1 uM in presence of NADPH by LC-MS/MS analysis; format: ADME, S9 microsome; conditions: read-out: CLH
[21] = test system: Mycobacterium tuberculosis; test: Antitubercular activity against luxABCDE expressing Mycobacterium tuberculosis H37Rv infected in mouse J774 macrophages assessed as log reduction in bacterial colonies at 200 uM measured after 4 days under aerobic condition by luminescence assay; format: functional
[22] = test system: Mycobacterium tuberculosis; test: Antitubercular activity against luxABCDE expressing Mycobacterium tuberculosis H37Rv infected in mouse J774 macrophages assessed as log reduction in bacterial colonies at 7.2 uM measured after 4 days under aerobic condition by luminescence assay; format: functional
L6 = test: Cytotoxicity against rat L6 cells after 2 days by CellTiter-Glo luminescent cell viability assay; format: ADME, cell-based; conditions: L6, 48 h
in vitro [23] = conditions: human, THP1 cells
Description: Selectivity index, ratio of IC50 for human THP1 cells to IC50 for Mycobacterium tuberculosis H37Rv under aerobic condition

THP-1 = test: Cytotoxicity against human THP1 cells after 3 days by luminescence assay; format: cell-based; conditions: THP-1, 72 h
HepG2 = test: Cytotoxicity against human HepG2 cells at 100 uM after 3 days by CellTiter-Glo luminescent cell viability assay; format: cell-based; conditions: HepG2, 72 h
[24] = Half life in human liver S9 microsomes at 1 uM in absence of NADPH by LC-MS/MS analysis
[25] = Apparent permeability of the compound across apical side to basolateral side in human Caco2 cells monolayer at 10 uM after 1 hr by LC-MS/MS analysis; format: ADME, cell-based; conditions: Caco-2
[26] = test system: Mycobacterium tuberculosis; test: Potency index, ratio of compound MIC to ethambutol MIC for antitubercular activity against Mycobacterium tuberculosis H37Rv ATCC 27294 under aerobic condition; format: functional

| SMILES | IC50 [2] [µM] | IC90 [2] [µM] | MIC [2] [µM] | IC50 [3] [µM] | IC90 [3] [µM] | fraction unbound at 4 h, 5 µM [5] | Papp B→A at 2 h, 10 µM (in vitro [8]) [×10⁻⁶ cm/s] | Papp A→B at 2 h, 10 µM (in vitro [10]) [×10⁻⁶ cm/s] | IC50 [14] [µM] | IC90 [14] [µM] | MIC [14] [µM] | MBC [16] [µM] | IC50 (Vero) [µM] | half-life at 1 µM [19] [h] | IC50 (L6) [µM] | also measured |
| --- | --- | --- | --- | --- | --- | --- | --- | --- | --- | --- | --- | --- | --- | --- | --- | --- |
| NNC(=O)c1ccncc1 [ISONIAZID] | 0.131 | 0.2 | 0.313 (≈ 0.0429 µg/mL) | 0.19 | 0.24 | – | – | – | – | – | – | – | – | – | – | log(activity) [1]: 2.7; log(activity) [4]: 2.6 |
| CC(C)NCC(O)COc1cccc2ccccc12 (centres undefined) [PROPRANOLOL] | – | – | – | – | – | 0.199 | 21.1 to 27.3 | 8.8 to 25.4 | – | – | – | – | – | – | – | efflux ratio at 1 h, 10 µM (in vitro [6]): 2.5; Papp B→A at 1 h, 10 µM [7]: 43.3 ×10⁻⁶ cm/s; efflux ratio at 2 h, 10 µM (in vitro [9]): 0.83 to 3.1; fraction unbound at 4 h, 5 µM [11]: 0.244 |
| O=C(NCCCCn1cnc([N+](=O)[O-])n1)c1nc2ccccc2s1 | 4.9 | 7.4 | 6.7 (≈ 2.32 µg/mL) | – | – | – | – | – | 26 | 29.2 | 23.4 (≈ 8.11 µg/mL) | 10.9 (≈ 3.78 µg/mL) | > 100 | – | – | log(activity) [12]: 2.4; Ratio [13]: 6 - 9; solubility [15]: Soluble |
| O=C(Cn1ccnc1[N+](=O)[O-])Nc1ccc(Oc2ccc(Cl)cc2)cc1 | 81 | > 200 | > 200 | – | – | – | – | – | 17 | 24 | 35 (≈ 13 µg/mL) | 100 (≈ 37.3 µg/mL) | 30 | – | – | Ratio [13]: 6 - 9; log(activity) [17]: 2.6 |
| COc1ccc2c(c1)[C@]13CCCC[C@@H]1[C@H](C2)N(C)CC3 [DEXTROMETHORPHAN] | – | – | – | – | – | – | – | – | – | – | – | – | – | 1.54 to 1.59 | – | microsomal CLint at 1 µM [18]: < 12.8 µL/min/mg; microsomal CLint at 1 µM [20]: 24.2 µL/min/mg |
| O=C(Cn1cnc([N+](=O)[O-])n1)Nc1ccc(Oc2ccc(Cl)cc2)cc1 | 51 | 100 | 94 (≈ 35.1 µg/mL) | – | – | – | – | – | 13 | 94 | > 200 | 100 (≈ 37.4 µg/mL) | 19 | – | – | log(activity) [21]: 2.6 |
| O=C(NCCCCn1cnc([N+](=O)[O-])n1)c1sc2ccccc2c1Cl | 4 | 6.4 | 6.1 (≈ 2.32 µg/mL) | – | – | – | – | – | 35.5 | 61.4 | 21.5 (≈ 8.17 µg/mL) | 7.2 (≈ 2.73 µg/mL) | > 100 | – | > 264 | Ratio [13]: 6 - 9; log(activity) [22]: 2.2 |
| O=C(Cn1ccnc1[N+](=O)[O-])Nc1ccc(Oc2ccccc2)cc1 | 60 | 90 | 98 (≈ 33.2 µg/mL) | – | – | – | – | – | 14 | 71 | > 200 | 100 (≈ 33.8 µg/mL) | 98 | – | 63 | log(activity) [21]: 2.7 |
| O=C(CCn1cnc([N+](=O)[O-])n1)Nc1cccc(-c2ccccc2)c1 | 3.6 to 6.1 | 6.8 to 7.1 | 6.8 to 8.4 (≈ 2.29 to 2.83 µg/mL) | 2.3 | 4.1 | 0.042 | 7 | 18 | 7.8 | 44 | > 200 | 6.8 (≈ 2.29 µg/mL) | – | > 3 | 36 | Activity ([2]; TDE = time-dependent effect): Tde; efflux ratio at 1 h, 10 µM (in vitro [6]): 0.79; Papp B→A at 1 h, 10 µM [7]: 17.5 ×10⁻⁶ cm/s; microsomal CLint at 1 µM [18]: < 12.8 µL/min/mg; Activity ([16]; TDE = time-dependent effect): Tde; efflux ratio at 2 h, 10 µM (in vitro [9]): 0.39; selectivity ratio (in vitro [23]): > 10; IC50 (THP-1): > 50 µM; IC50 (HepG2): > 100 µM; half-life at 1 µM [24]: > 3 h; fraction unbound at 4 h, 5 µM [11]: 0.033; microsomal CLint at 1 µM [20]: < 12.8 µL/min/mg; Papp A→B at 1 h, 10 µM [25]: 22.2 ×10⁻⁶ cm/s |
| O=C(Cn1cnc([N+](=O)[O-])n1)Nc1ccc(Oc2ccccc2)cc1 | 65 | 100 | 105 (≈ 35.6 µg/mL) | – | – | – | – | – | 8.9 | 92 | > 200 | 200 (≈ 67.9 µg/mL) | 39 | – | – | log(activity) [21]: 2.7 |
| O=C(Cn1cnc([N+](=O)[O-])n1)N1CCN(Cc2ccc(Cl)c(Cl)c2)CC1 | 5.9 | 7.7 | 6.6 (≈ 2.63 µg/mL) | 4 | 6.7 | 0.076 | 14.8 | 16.3 | 17 | 47 | 140 (≈ 55.9 µg/mL) | 5.6 (≈ 2.24 µg/mL) | – | 1.2 | – | selectivity ratio (in vitro [23]): > 10; IC50 (THP-1): > 50 µM; IC50 (HepG2): 77 µM; half-life at 1 µM [24]: 2.9 h |
| O=C(CCn1cnc([N+](=O)[O-])n1)Nc1cccc(OCc2ccccc2)c1 | 1.7 to 3.2 | 2.8 to 3.6 | 3 to 4.1 (≈ 1.1 to 1.51 µg/mL) | 1.3 | 2.9 | 0.033 | 10.5 | 15.8 | 9.2 | 41 | > 200 | 0.75 (≈ 0.276 µg/mL) | – | 2.07 | 40 | Activity [2]: Dose-dependent effect; efflux ratio at 1 h, 10 µM (in vitro [6]): 0.79; Papp B→A at 1 h, 10 µM [7]: 17.6 ×10⁻⁶ cm/s; microsomal CLint at 1 µM [18]: < 12.8 µL/min/mg; Ratio [26]: 2; Activity [16]: Dose-dependent effect; efflux ratio at 2 h, 10 µM (in vitro [9]): 0.67; selectivity ratio (in vitro [23]): > 10; IC50 (THP-1): > 50 µM; IC50 (HepG2): > 100 µM; half-life at 1 µM [24]: > 3 h; fraction unbound at 4 h, 5 µM [11]: 0.042; microsomal CLint at 1 µM [20]: 18.7 µL/min/mg; Papp A→B at 1 h, 10 µM [25]: 22.2 ×10⁻⁶ cm/s |
